Reference: patent publication US9353094B2, “Substituted quinoxalines as kinase inhibitors” (BOARD OF REGENTS OF THE UNIVERSITY OF NEBRASKA, priority 2010, dated 2016)

Assays:
[1] = test system: human colorectal HT-29 tumor cell line; test: Cell growth inhibition assay (alamar blue); assay type: cell-based; conditions: HT29, 20 μM, 72 h
Protocol: (§1) The compounds were screened in a growth inhibition assay at 20 μM over a 72 h period in a panel of cancer cell lines (lung-A549; pancreatic-Aspc1; colon-HT29; breast-MDAMB231; prostate-PC3; ovarian-SKOV3 and bone-U2OS) and the results are summarized in Table 2. […] This size effect was also observed with the urea compounds from the secondary amine (6j vs. 6l and 6k vs. 6m).
(§2) Cell Growth Inhibition Assay. Human lung A549, human pancreatic AsPC1, human colorectal HT-29, human breast MDA-MB-231, human prostate PC3, human ovarian SKOV3, and human osteosarcoma U2OS tumor cell lines were cultured in basal media containing 10% FBS and maintained in a 37° C. incubator with 5% CO2. All compounds were screened in 96 well microtiter plate format. In general, each cell line was plated at optimal assay density in 95 μl of propagation media in 96 well plates and incubated overnight. The next day, a standard alamar blue assay was performed (see below) on representative wells of each cell line for a Tz calculation. Subsequently, cells were treated in duplicate with a 5 μl volume of either vehicle only, positive controls etoposide and taxol, or test compounds at 20 μM (highest soluble compound concentration). The treated cells were incubated for 72 h and then assayed for growth by alamar blue assay. Briefly, 10 μl of reagent was added to each well and the plates returned to 37° C. After 3 h, fluorescence at 544ex/590em was measured using a SpectraMax M5 (Molecular Devices) plate reader. Growth is represented as a percentage of the control cells that were treated with vehicle only and % growth inhibition was determined using the NCI algorithm: Tz=number of untreated cells at zero time, C=Number of control cells at 72 h time, and T=number of compound treated cells at 72 h time; 100*([T−Tz]/[C−Tz]).

[2] = test system: human prostate PC3 tumor cell line; test: Cell growth inhibition assay (alamar blue); assay type: cell-based; conditions: PC3, 20 μM, 72 h
Protocol: as §1, §2

[3] = test system: human osteosarcoma U2OS tumor cell line; test: Cell growth inhibition assay (alamar blue); assay type: cell-based; conditions: 72 h
Protocol: as §1, §2

[4] = test system: human pancreatic AsPC1 tumor cell line; test: Cell growth inhibition assay (alamar blue); assay type: cell-based; conditions: AsPC1, 20 μM, 72 h
Protocol: as §1, §2

[5] = test system: human lung A549 tumor cell line; test: Cell growth inhibition assay (alamar blue); assay type: cell-based; conditions: A549, 20 μM, 72 h
Protocol: as §1, §2

[6] = test system: human ovarian SKOV3 tumor cell line; test: Cell growth inhibition assay (alamar blue); assay type: cell-based; conditions: SKOV3, 20 μM, 72 h
Protocol: as §1, §2

[7] = test system: human breast MDA-MB-231 tumor cell line; test: Cell growth inhibition assay (alamar blue); assay type: cell-based; conditions: MDA-MB-231, 20 μM, 72 h
Protocol: as §1, §2

[8] = test system: panel of cancer cell lines; test: Growth inhibition assay, whole panel; assay type: cell-based, human; conditions: 20 μM, 72 h
Protocol: as §1, §2

| Compound | % Growth inhibition at 20 μM [1] | % Growth inhibition at 20 μM [2] | % Growth inhibition at 20 μM [3] | % Growth inhibition at 20 μM [4] | % Growth inhibition at 20 μM [5] | % Growth inhibition at 20 μM [6] | % Growth inhibition at 20 μM [7] | growth inhibition of the various cancer cell lines (in words) [8] |
| --- | --- | --- | --- | --- | --- | --- | --- | --- |
| S=C(Nc1ccccc1)Nc1ccc2nc(-c3ccco3)c(-c3ccco3)nc2c1 [6a] | 26.1 ± 15.0% | 56.8 ± 1.4% | 21.4 ± 8.4% | Inactive | 18.0 ± 0.1% | Inactive | 19.1 ± 12.5% | active |
| O=C(Nc1ccc2nc(-c3ccco3)c(-c3ccco3)nc2c1)N1CCCC1 [6h] | 16.7 ± 3.7% | 53.1 ± 9.9% | 46.5 ± 4.4% | 11.6 ± 4.2% | 23.3 ± 2.9% | 16.9 ± 4.9% | 18.2 ± 7.0% | active |
| O=C(Nc1ccc2nc(-c3ccco3)c(-c3ccco3)nc2c1)N1CCOCC1 [6m] | 19.4 ± 3.6% | 48.9 ± 7.5% | Inactive | Inactive | 39.7 ± 12.8% | Inactive | 10.9 ± 5.0% | active |
| O=C(Nc1ccc2nc(-c3ccco3)c(-c3ccco3)nc2c1)N1CCC(Cc2ccccc2)CC1 [6k] | 55.2 ± 4.1% | >100% | 80.3 ± 2.4% | >100% | 93.1 ± 7.8% | 47.6 ± 2.5% | 90.8 ± 4.5% | active |
| O=[N+]([O-])c1ccc(NC(=S)Nc2ccc3nc(-c4ccco4)c(-c4ccco4)nc3c2)cc1 [6d] | 42.0 ± 1.9% | 43.4 ± 9.3% | 32.2 ± 0.1% | Inactive | 19.2 ± 8.9% | Inactive | 9.0 ± 4.7% | active |
| CC(=O)Nc1ccc2nc(C)c(C)nc2c1 [5a] | 31.7 ± 2.8% | 21.8 ± 15.1% | 31.4 ± 3.6% | 26.2 ± 2.8% | 23.4 ± 3.3% | 4.0 ± 3.6% | 25.7 ± 5.1% | inhibited growth |
| O=[N+]([O-])c1ccc(NC(=S)Nc2ccc3nc(-c4ccccc4)c(-c4ccccc4)nc3c2)cc1 [6f] | 81.2 ± 0.7% | 81.0 ± 8.5% | 76.1 ± 0.4% | 55.5 ± 25.4% | 16.6 ± 11.2% | 55.8 ± 30.7% | 72.6 ± 0.7% |  |
| O=C(Nc1ccc(Cl)cc1)Nc1ccc2nc(-c3ccco3)c(-c3ccco3)nc2c1 [7b] | 86.3 ± 7.7% | 86.4 ± 1.1% | 87.4 ± 1.1% | 81.1 ± 2.0% | 99.2 ± 5.2% | 55.8 ± 24.1% | 92.5 ± 6.6% |  |
| CC(=O)Nc1ccc2nc(-c3ccccc3)c(-c3ccccc3)nc2c1 [5d] | Inactive | Inactive | Inactive | Inactive | Inactive | Inactive | Inactive |  |
| Cc1ccc(S(=O)(=O)N(c2ccc3nc(-c4ccco4)c(-c4ccco4)nc3c2)S(=O)(=O)c2ccc(C)cc2)cc1 [5j] | Inactive | Inactive | Inactive | Inactive | Inactive | Inactive | Inactive |  |
| O=C(Nc1ccc(F)cc1)Nc1ccc2nc(-c3ccco3)c(-c3ccco3)nc2c1 [7a] | 74.2 ± 5.2% | 90.7 ± 4.1% | 55.6 ± 6.6% | >100% | >100% | Inactive | 38.4 ± 2.7% |  |
| S=C(Nc1ccccc1)Nc1ccc2nc(-c3cccs3)c(-c3cccs3)nc2c1 [6b] | Inactive | Inactive | Inactive | Inactive | Inactive | Inactive | Inactive |  |
| Cc1nc2ccc(NC(=O)N3CCCCC3)cc2nc1C [6l] | Inactive | Inactive | Inactive | Inactive | Inactive | Inactive | Inactive |  |
| CC(=O)Nc1ccc2nc(-c3ccco3)c(-c3ccco3)nc2c1 [5b] | 7.6 ± 5.1% | 57.7 ± 9.4% | Inactive | Inactive | 57.8 ± 7.0% | 9.0 ± 3.4% | 20.3 ± 5.9% | inhibited growth |
| CC(=O)Nc1ccc2nc(-c3cccs3)c(-c3cccs3)nc2c1 [5c] | Inactive | Inactive | Inactive | Inactive | Inactive | Inactive | Inactive |  |
| O=C(Nc1ccc(-c2ccccc2)cc1)Nc1ccc2nc(-c3ccco3)c(-c3ccco3)nc2c1 [7d] | 72.4 ± 7.6% | 88.5 ± 1.9% | 46.9 ± 7.4% | Inactive | 13.8 ± 9.8% | Inactive | 50.2 ± 8.9% |  |
| O=C(Nc1ccccc1)Nc1ccc2nc(-c3ccco3)c(-c3ccco3)nc2c1 [5f] | 52.1 ± 11.6% | 70.6 ± 1.3% | 59.6 ± 1.6% | 9.6 ± 6.6% | 54.6 ± 2.6% | 24.7 ± 1.1% | 31.3 ± 10.7% | inhibited growth |
